Where two headings read alike, the source gives them in different places.
Legend:
Assay type in all cases: cell-based
[1] = test system: the strains (MBL-producing Gram-negative clinical strains); experiment: Intrinsic antibacterial activity of the inhibitor; details: concentrations up to 500 μM
Protocol: (§1) MICs of carbapenems alone and in combination with inhibitors were determined by broth microdilution according to the Clinical and Laboratory Standards Institute (CLSI) guidelines ([48]) using either premade plates (TREK Diagnostic Systems/Thermo Fisher Scientific, East Grinstead, United Kingdom) with meropenem or in-house-prepared plates with meropenem, imipenem, and doripenem. ZN148 and other inhibitors were tested at a fixed concentration of 50 μM. Cation-adjusted Mueller-Hinton medium (TREK Diagnostic Systems/Thermo Fisher Scientific; Becton Dickinson, Franklin Lakes, NJ) were used as growth medium. The plates were incubated for 20 h at 37°C. ZN148, ZN222, ZN223, ZN228, and TPA were initially tested in combination with meropenem using two indicator strains: NDM-1-producing K. pneumoniae ([49], [50]) and VIM-2-producing P. aeruginosa ([51]). […]

[2] = test system: MBL-producing Enterobacterales (n=234); experiment: Meropenem MIC distribution, all MBL-producing Enterobacterales; details: for No. of strains with indicated MIC: MEM alone or +50 µM ZN148
Protocol: (§2) MICs of carbapenems alone and in combination with inhibitors were determined by broth microdilution according to the Clinical and Laboratory Standards Institute (CLSI) guidelines ([48]) using either premade plates (TREK Diagnostic Systems/Thermo Fisher Scientific, East Grinstead, United Kingdom) with meropenem or in-house-prepared plates with meropenem, imipenem, and doripenem. ZN148 and other inhibitors were tested at a fixed concentration of 50 μM. Cation-adjusted Mueller-Hinton medium (TREK Diagnostic Systems/Thermo Fisher Scientific; Becton Dickinson, Franklin Lakes, NJ) were used as growth medium. The plates were incubated for 20 h at 37°C. ZN148, ZN222, ZN223, ZN228, and TPA were initially tested in combination with meropenem using two indicator strains: NDM-1-producing K. pneumoniae ([49], [50]) and VIM-2-producing P. aeruginosa ([51]). The activity of ZN148 were subsequently tested against two extended strain collections: (i) in combination with meropenem against MBL-producing Enterobacterales (n = 62), MBL-producing P. aeruginosa (n = 9) and MBL- and class D carbapenemase-coproducing Enterobacterales (n = 5) from the strain collection at the Norwegian National Advisory Unit on Detection of Antimicrobial Resistance and (ii) in combination with meropenem, imipenem, and doripenem against globally collected MBL-producing E. coli (n = 87), K. pneumoniae (n = 85), P. aeruginosa (n = 52), and A. baumannii (n = 6), MBL- and class A/D carbapenemase-coproducing E. coli (n = 11), K. pneumoniae (n = 15) and A. baumannii (n = 7) at IHMA Europe, Sàrl, Switzerland. E. coli ATCC 25922 and P. aeruginosa ATCC 27853 were used as quality control strains. The MBL inhibitors were also tested for intrinsic antibacterial activity against the strains.

[3] = test system: 173 MBL-producing E. coli and K. pneumoniae strains; experiment: Doripenem and imipenem MIC, MBL-producing E. coli and K. pneumoniae subset; details: 50 μM ZN148; 173 strains
Protocol: as §1

[4] = test system: NDM-1-producing K. pneumoniae K66-45; experiment: Time-kill assay
Protocol: To determine the kinetics of killing of the meropenem-ZN148 combination, NDM-1-producing K. pneumoniae K66-45 (1 × 10^6 CFU/ml) in cation-adjusted Mueller-Hinton broth II (Sigma-Aldrich, St. Louis, MO) was treated with either 4 mg/liter meropenem or a combination of 4 mg/liter meropenem plus 50 or 100 μM ZN148 and grown at 37°C with shaking (180 rpm). The cell number was determined over the course of 24 h by using a modified Miles-Misra method ([52]). Briefly, […] serial dilutions of culture in sterile PBS were spotted and dried on square (10 by 10 cm) Luria-Bertani agar (Oxoid, Basingstoke, UK) plates at room temperature before incubation at 37°C. The limit of detection was set as […] in […] of undiluted culture, representing 100 CFU/ml.

[5] = test system: strains harboring only the class A carbapenemase KPC; experiment: Carbapenem potentiation, strains with only KPC; details: 50 μM ZN148
[6] = test system: NDM-1-producing K. pneumoniae K66-45; experiment: Serial passage on increasing meropenem; details: for fold increase in meropenem MIC after serial passaging: compared to control culture / original MIC
Protocol: K. pneumoniae K66-45 was passaged in a 96-well microtiter plate with a consistent concentration of ZN148 and increasing concentrations of meropenem. To start the passaging, cation-adjusted Mueller-Hinton broth II medium (Sigma-Aldrich) containing 0.0625 mg/liter (0.5× MIC) and 50 or 100 μM ZN148 was inoculated with 1% of overnight culture, which was grown without selection. Six biological replicates were passaged in parallel, and from each of the six overnight cultures four wells were inoculated, resulting in 24 subcultures for each ZN148 concentration. After 24 h of incubation at 37°C and shaking at 180 rpm, the wells were visually checked for growth.

[7] = test system: NDM-1-producing K. pneumoniae K66-45; experiment: Meropenem MIC, broth microdilution, indicator strain K66-45; details: for MIC: Klebsiella pneumoniae
Protocol: as §2

[8] = test system: NDM-1-producing A. baumannii strains (n=6); experiment: Carbapenem MIC, NDM-1-producing A. baumannii
Protocol: as §2

[9] = test system: strains coproducing MBLs and class D carbapenemases; experiment: Carbapenem potentiation, strains coproducing MBLs and class D carbapenemases; details: with a few exceptions; 50 μM ZN148
Protocol: as §1

[10] = test system: VIM-2-producing P. aeruginosa K34-7; experiment: Meropenem MIC, broth microdilution, indicator strain K34-7
Protocol: as §2

[11] = test system: E. coli with VIM (n=7); experiment: Meropenem MIC distribution, E. coli with VIM; details: MEM alone or +50 µM ZN148
Protocol: as §2

[12] = test system: K. pneumoniae with VIM (n=17); experiment: Meropenem MIC distribution, K. pneumoniae with VIM; details: MEM alone or +50 µM ZN148
Protocol: as §2

[13] = test system: K. pneumoniae with NDM (n=95); experiment: Meropenem MIC distribution, K. pneumoniae with NDM; details: MEM alone or +50 µM ZN148
Protocol: as §2

[14] = test system: class A carbapenemase (KPC)-producing E. cloacae; experiment: Carbapenem MIC, class A carbapenemase-producing E. cloacae; details: carbapenem alone or with 50µM ZN148
Protocol: as §2

[15] = test system: A. baumannii co-producing MBLs and class A/D serine carbapenemases; experiment: Carbapenem MIC, A. baumannii co-producing NDM-1 and class D carbapenemases; details: carbapenem alone or with 50µM ZN148, one value per strain
Protocol: as §2

[16] = test system: E. coli with IMP (n=3); experiment: Meropenem MIC distribution, E. coli with IMP; details: MEM alone or +50 µM ZN148
Protocol: as §1

[17] = meropenem 4 mg/liter with either 50 or 100 μM ZN148

Q: What does the source list for `CN(C[C@H](O)[C@@H](O)[C@H](O)[C@H](O)CO)C(=O)c1ccc(CN(Cc2ccccn2)Cc2ccccn2)nc1` [ZN148]?
A: intrinsic antibacterial activity [1]: no intrinsic antibacterial activity; strains with meropenem MIC reduced to susceptible levels (≤2 mg/liter) ([2]; ZN148 at 50 μM, n = 234): > 98%; strains with doripenem MIC reduced to susceptible levels [3]: > 99%; strains with imipenem MIC reduced to susceptible levels [3]: > 99%; cell numbers after 8 h (below limit of detection) [4, 17]: < 1 × 10^2 CFU/ml; killing effect of combination [4, 17]: bactericidal; regrowth within 24 h [4, 17]: no regrowth; potentiation of meropenem, doripenem, or imipenem [5]: no potentiation; maximum meropenem MIC reached by evolved cultures ([6]; 50 µM ZN148, 8 passages): 8 µg/mL; maximum meropenem MIC reached by evolved cultures ([6]; 100 µM ZN148, 6 passages): 2 µg/mL; fold increase in meropenem MIC after serial passaging ([6]; in the presence of 50 μM ZN148): 64 fold; fold increase in meropenem MIC after serial passaging ([6]; in the presence of 100 μM ZN148): 16 fold; restoration of meropenem clinical susceptibility (EUCAST breakpoints) ([7]; inhibitor at 50 μM): fully restored meropenem clinical susceptibility; reduction of meropenem MIC ([8]; in four of six clinical strains, class D carbapenemase-negative): > 2 fold; potentiation of meropenem, doripenem, and imipenem [9]: no potentiation; restoration of meropenem clinical susceptibility (EUCAST breakpoints) ([10]; inhibitor at 50 μM): fully restored meropenem clinical susceptibility

Q: What does the source list for `C[C@@H](O)[C@H]1C(=O)N2C(C(=O)O)=C(S[C@@H]3CN[C@H](C(=O)N(C)C)C3)[C@H](C)[C@H]12` [meropenem]?
A: MIC90 [2]: ≥ 64 µg/mL; No. of strains with indicated MIC ([2]; MIC 0.5 mg/L): 1; No. of strains with indicated MIC ([2]; MIC 1 mg/L): 2; No. of strains with indicated MIC ([2]; MIC 2 mg/L): 3; No. of strains with indicated MIC ([2]; MIC 4 mg/L): 10; No. of strains with indicated MIC ([2]; MIC 8 mg/L): 9; No. of strains with indicated MIC ([2]; MIC 16 mg/L): 22; No. of strains with indicated MIC ([2]; MIC 32 mg/L): 35; No. of strains with indicated MIC ([2]; MIC ≥64 mg/L): 152; No. of strains with indicated MIC ([11]; MIC 0.5 mg/L): 1; No. of strains with indicated MIC ([11]; MIC 8 mg/L): 3; No. of strains with indicated MIC ([11]; MIC 16 mg/L): 2; No. of strains with indicated MIC ([11]; MIC 32 mg/L): 1; cell number after 24 h ([4]; meropenem alone 4 mg/liter): > 1 × 10^9 CFU/ml; initial reduction in cell numbers (bacteriostatic effect) ([4]; meropenem alone 4 mg/liter): 2 log; No. of strains with indicated MIC ([12]; MIC 2 mg/L): 2; No. of strains with indicated MIC ([12]; MIC 4 mg/L): 2; No. of strains with indicated MIC ([12]; MIC 8 mg/L): 1; No. of strains with indicated MIC ([12]; MIC 16 mg/L): 4; No. of strains with indicated MIC ([12]; MIC 32 mg/L): 3; No. of strains with indicated MIC ([12]; MIC ≥64 mg/L): 5; No. of strains with indicated MIC ([13]; MIC 2 mg/L): 1; No. of strains with indicated MIC ([13]; MIC 8 mg/L): 1; No. of strains with indicated MIC ([13]; MIC 16 mg/L): 3; No. of strains with indicated MIC ([13]; MIC 32 mg/L): 10; No. of strains with indicated MIC ([13]; MIC ≥64 mg/L): 80; MIC ([14]; Enterobacter cloacae, KPC-2 strains, one value per strain, read-out: MIC): 16 µg/mL; MIC ([14]; Enterobacter cloacae, KPC-3 strain, read-out: MIC): 2 µg/mL; MIC ([14]; KPC-2 strains, one value per strain, listed as MEM): 32 µg/mL; MIC ([15]; NDM-1 + OXA-23-like strains): > 64 µg/mL; MIC ([15]; NDM-1 + OXA-24-like, OXA-58-like strains): > 64 µg/mL; MIC ([7]; alone or in presence of 30 µM, 50 µM or 100 µM ZN148 (Table S6 title), read-out: MIC of meropenem): > 32 µg/mL; MIC ([7]; meropenem alone or +50 µM TPA or ZN148, read-out: Meropenem MIC): 32 to 64 µg/mL; MIC ([8]; carbapenem alone or in combination with 50µM ZN148, one value per strain (n=6)): > 64 µg/mL; MIC ([10]; Pseudomonas aeruginosa, meropenem alone or +50 µM TPA or ZN148): 32 to 64 µg/mL; No. of strains with indicated MIC ([16]; MIC 4 mg/L): 1; No. of strains with indicated MIC ([16]; MIC 16 mg/L): 2
